Laboratory results reported in US20200155532A1, “METHOD FOR TREATING VIRAL INFECTIONS WITH LOPERAMIDE” (priority 2018, published 2020).

Tested on: herpes viral infections
Assay: treating herpes outbreaks with loperamide taken by mouth
Assay type: in vivo
Details: herpes outbreak; patient taking loperamide
Source text: Referring to FIG. 1, the present invention may include a new use of loperamide 100 as an anti-viral agent. Herpes, which erupts during stress and may include repeated flare-ups over, sometimes, weeks may be treated with the new use of loperamide 100 disclosed herein, which tends to eliminate this recycling when taken at every flare-up. Specifically, the new use 100 of loperamide as an anti-viral agent may have the following steps: at the onset of symptoms, the user takes the recommended amount at the recommended time intervals, such as two 2 mg loperamide tablets four or five times a day, in step 110; if pain persists, the user may review the dosage, in step 120; after 72 hours, when pain has subsided and blisters are gone or only thin scabs, the patient may discontinue use in step 130; magnesium hydroxide may be used for bowel function during treatment, in step 140; and in the case of a new flare-up, the user-patient may repeat the dosage cycle in step 150.

## CN(C)C(=O)C(CCN1CCC(O)(c2ccc(Cl)cc2)CC1)(c1ccccc1)c1ccccc1 [loperamide]
  effect on the virus's activity: stop the virus's activity
  time to full recovery: three
  time to stop the pain: ≤ 30 min
